Assay results as given in patent US8680133B2, “Alkyl indole-3-carbinol-derived antitumor agents” (The Ohio State University Research Foundation, priority 2009, dated 2014).

How the values were obtained:
HL-60(TB) = assay: NCI60 screening, Leukemia, HL-60(TB); format: cell-based, human
A549/ATCC = assay: NCI60 screening, Non-Small Cell Lung Cancer, A549/ATCC; format: cell-based, human
NCI-H226 = assay: NCI60 screening, Non-Small Cell Lung Cancer, NCI-H226; format: cell-based, human
NCI-H322M = assay: NCI60 screening, Non-Small Cell Lung Cancer, NCI-H322M; format: cell-based, human
KM12 = assay: NCI60 screening, Colon Cancer, KM12; format: cell-based, human
SF-268 = assay: NCI60 screening, CNS Cancer, SF-268; format: cell-based, human
SNB-19 = assay: NCI60 screening, CNS Cancer, SNB-19; format: cell-based, human
M14 = assay: NCI60 screening, Melanoma, M14; format: cell-based, human
SK-MEL-2 = assay: NCI60 screening, Melanoma, SK-MEL-2; format: cell-based, human
SK-MEL-5 = assay: NCI60 screening, Melanoma, SK-MEL-5; format: cell-based, human
UACC-257 = assay: NCI60 screening, Melanoma, UACC-257; format: cell-based, human
UACC-62 = assay: NCI60 screening, Melanoma, UACC-62; format: cell-based, human
OVCAR-8 = assay: NCI60 screening, Ovarian Cancer, OVCAR-8; format: cell-based, human
PC-3 = assay: NCI60 screening, Prostate Cancer, PC-3; format: cell-based, human
DU-145 = assay: NCI60 screening, Prostate Cancer, DU-145; format: cell-based, human
PC-3 xenograft tumor = PC-3 xenograft tumor growth in nude mice, oral gavage; format: in vivo; settings: after 7 weeks, P<0.05
Description: FIG. 2 provides three graphs (A-C) showing the in vivo effects of OSU-A9M (C) versus OSU-A9 (A) and OSU-A9 F (B), each at 25 and 50 mg/kg per day by oral gavage, on suppressing PC-3 xenograft tumor growth in nude mice (n=6).
The efficacy studies were therefore repeated with OSU-A9M and OSU-A9F, following 42 days and 49 days treatment, respectively, versus OSU-A9 with 49-day treatment.
In all three treatments, the body weights of drug-treated mice were not affected. No signs of overt toxicity were observed.

[1] = Body weight of PC-3 xenograft mice receiving the experimental diet; format: in vivo, nude mice; settings: 450 ppm in diet, compared to controls
Description: Given the increased potency of OSU-A9M compared to the other lead derivatives, an experimental diet was formulated. An AIN-76A rodent diet (American Institute of Nutrition; including primarily casein, sucrose, and corn starch) containing 450 ppm OSU-A9M was made to deliver approximately 50 mg/kg of drug per day to each mouse estimated by food consumption and body weight measurements.

[2] = Homo sapiens, read-out: LC50 (the source's name)

For `Cc1ccc2c(c1)c(CO)cn2S(=O)(=O)c1ccc(Cl)c([N+](=O)[O-])c1` [OSU-A9M, [1-(4-chloro-3-nitro-benzenesulfonyl)-5-methyl-1H-indol-3-yl]-methanol], the TGI (HL-60(TB)) was 4.80E−6, the GI50 (HL-60(TB); Homo sapiens) was 1.55 µM and the CC50 (HL-60(TB); [2]) was 32.5 µM. The “Percent Growth” value (HL-60(TB); Log10 Concentration −4.0) was −67%, the “Percent Growth” value (HL-60(TB); Log10 Concentration −5.0) was −32% and the “Percent Growth” value (HL-60(TB); Log10 Concentration −6.0) was 69%. For the same compound, the “Percent Growth” value (HL-60(TB); Log10 Concentration −7.0) was 84%, the “Percent Growth” value (HL-60(TB); Log10 Concentration −8.0) was 91% and the TGI (A549/ATCC) was 4.89E−6. For the same compound, the GI50 (A549/ATCC; Homo sapiens) was 2.05 µM, the CC50 (A549/ATCC; [2]) was over 100 µM and the “Percent Growth” value (A549/ATCC; Log10 Concentration −4.0) was −47%. The “Percent Growth” value (A549/ATCC; Log10 Concentration −5.0) was −41%, the “Percent Growth” value (A549/ATCC; Log10 Concentration −6.0) was 91% and the “Percent Growth” value (A549/ATCC; Log10 Concentration −7.0) was 94%. For the same compound, the “Percent Growth” value (A549/ATCC; Log10 Concentration −8.0) was 95%, the TGI (NCI-H226) was 3.32E−6 and the GI50 (NCI-H226; Homo sapiens) was 0.953 µM. For the same compound, the CC50 (NCI-H226; [2]) was 17.4 µM, the “Percent Growth” value (NCI-H226; Log10 Concentration −4.0) was −65% and the “Percent Growth” value (NCI-H226; Log10 Concentration −5.0) was −45%. For the same compound, the “Percent Growth” value (NCI-H226; Log10 Concentration −6.0) was 49%, the “Percent Growth” value (NCI-H226; Log10 Concentration −7.0) was 93% and the “Percent Growth” value (NCI-H226; Log10 Concentration −8.0) was 91%. It also gave a TGI (NCI-H322M) of 3.10E−6, a GI50 (NCI-H322M; Homo sapiens) of 1.68 µM and an LC50 (NCI-H322M; Homo sapiens) of 5.71 µM. For the same compound, the “Percent Growth” value (NCI-H322M; Log10 Concentration −4.0) was −93%, the “Percent Growth” value (NCI-H322M; Log10 Concentration −5.0) was −96% and the “Percent Growth” value (NCI-H322M; Log10 Concentration −6.0) was 93%. The “Percent Growth” value (NCI-H322M; Log10 Concentration −7.0) was 89%, the “Percent Growth” value (NCI-H322M; Log10 Concentration −8.0) was 91% and the TGI (KM12) was 2.97E−6. For the same compound, the GI50 (KM12; Homo sapiens) was 1.62 µM, the CC50 (KM12; [2]) was 5.45 µM and the “Percent Growth” value (KM12; Log10 Concentration −4.0) was −100%. The “Percent Growth” value (KM12; Log10 Concentration −5.0) was −100%, the “Percent Growth” value (KM12; Log10 Concentration −6.0) was 90% and the “Percent Growth” value (KM12; Log10 Concentration −7.0) was 97%. For the same compound, the “Percent Growth” value (KM12; Log10 Concentration −8.0) was 105%, the TGI (SF-268) was 3.01E−6 and the GI50 (SF-268; Homo sapiens) was 1.65 µM. For the same compound, the CC50 (SF-268; [2]) was 5.49 µM, the “Percent Growth” value (SF-268; Log10 Concentration −4.0) was −100% and the “Percent Growth” value (SF-268; Log10 Concentration −5.0) was −100%. For the same compound, the “Percent Growth” value (SF-268; Log10 Concentration −6.0) was 92%, the “Percent Growth” value (SF-268; Log10 Concentration −7.0) was 89% and the “Percent Growth” value (SF-268; Log10 Concentration −8.0) was 86%. For the same compound, the TGI (SNB-19) was 2.97E−6, the GI50 (SNB-19; Homo sapiens) was 1.62 µM and the CC50 (SNB-19; [2]) was 5.45 µM. The “Percent Growth” value (SNB-19; Log10 Concentration −4.0) was −100%, the “Percent Growth” value (SNB-19; Log10 Concentration −5.0) was −100% and the “Percent Growth” value (SNB-19; Log10 Concentration −6.0) was 90%. The “Percent Growth” value (SNB-19; Log10 Concentration −7.0) was 86%, the “Percent Growth” value (SNB-19; Log10 Concentration −8.0) was 88% and the TGI (M14) was 2.88E−6. For the same compound, the GI50 (M14; Homo sapiens) was 1.52 µM, the CC50 (M14; [2]) was 5.43 µM and the “Percent Growth” value (M14; Log10 Concentration −4.0) was −100%. The “Percent Growth” value (M14; Log10 Concentration −5.0) was −98%, the “Percent Growth” value (M14; Log10 Concentration −6.0) was 83% and the “Percent Growth” value (M14; Log10 Concentration −7.0) was 97%. For the same compound, the “Percent Growth” value (M14; Log10 Concentration −8.0) was 95%, the TGI (SK-MEL-2) was 3.04E−6 and the GI50 (SK-MEL-2; Homo sapiens) was 1.6 µM. For the same compound, the CC50 (SK-MEL-2; [2]) was 5.78 µM, the “Percent Growth” value (SK-MEL-2; Log10 Concentration −4.0) was −93% and the “Percent Growth” value (SK-MEL-2; Log10 Concentration −5.0) was −93%. The “Percent Growth” value (SK-MEL-2; Log10 Concentration −6.0) was 86%, the “Percent Growth” value (SK-MEL-2; Log10 Concentration −7.0) was 96% and the “Percent Growth” value (SK-MEL-2; Log10 Concentration −8.0) was 102%. For the same compound, the TGI (SK-MEL-5) was 2.83E−6, the GI50 (SK-MEL-5; Homo sapiens) was 1.5 µM and the CC50 (SK-MEL-5; [2]) was 5.32 µM. For the same compound, the “Percent Growth” value (SK-MEL-5; Log10 Concentration −4.0) was −100%, the “Percent Growth” value (SK-MEL-5; Log10 Concentration −5.0) was −100% and the “Percent Growth” value (SK-MEL-5; Log10 Concentration −6.0) was 82%. The “Percent Growth” value (SK-MEL-5; Log10 Concentration −7.0) was 92%, the “Percent Growth” value (SK-MEL-5; Log10 Concentration −8.0) was 96% and the TGI (UACC-257) was 3.31E−6. The GI50 (UACC-257; Homo sapiens) was 1.72 µM, the CC50 (UACC-257; [2]) was 6.4 µM and the “Percent Growth” value (UACC-257; Log10 Concentration −4.0) was −96%. For the same compound, the “Percent Growth” value (UACC-257; Log10 Concentration −5.0) was −84%, the “Percent Growth” value (UACC-257; Log10 Concentration −6.0) was 91% and the “Percent Growth” value (UACC-257; Log10 Concentration −7.0) was 94%. For the same compound, the “Percent Growth” value (UACC-257; Log10 Concentration −8.0) was 96%, the TGI (UACC-62) was 3.19E−6 and the GI50 (UACC-62; Homo sapiens) was 1.67 µM. The CC50 (UACC-62; [2]) was 6.07 µM, the “Percent Growth” value (UACC-62; Log10 Concentration −4.0) was −93% and the “Percent Growth” value (UACC-62; Log10 Concentration −5.0) was −89%. The “Percent Growth” value (UACC-62; Log10 Concentration −6.0) was 90%, the “Percent Growth” value (UACC-62; Log10 Concentration −7.0) was 91% and the “Percent Growth” value (UACC-62; Log10 Concentration −8.0) was 93%. It also gave a TGI (OVCAR-8) of 3.95E−6, a GI50 (OVCAR-8; Homo sapiens) of 1.93 µM and a CC50 (OVCAR-8; [2]) of 8.09 µM. The “Percent Growth” value (OVCAR-8; Log10 Concentration −4.0) was −84%, the “Percent Growth” value (OVCAR-8; Log10 Concentration −5.0) was −65% and the “Percent Growth” value (OVCAR-8; Log10 Concentration −6.0) was 96%. For the same compound, the “Percent Growth” value (OVCAR-8; Log10 Concentration −7.0) was 101%, the “Percent Growth” value (OVCAR-8; Log10 Concentration −8.0) was 97% and the TGI (PC-3) was 4.32E−6. For the same compound, the GI50 (PC-3; Homo sapiens) was 1.62 µM, the CC50 (PC-3; [2]) was 13.9 µM and the “Percent Growth” value (PC-3; Log10 Concentration −4.0) was −93%. For the same compound, the “Percent Growth” value (PC-3; Log10 Concentration −5.0) was −43%, the “Percent Growth” value (PC-3; Log10 Concentration −6.0) was 75% and the “Percent Growth” value (PC-3; Log10 Concentration −7.0) was 74%. The “Percent Growth” value (PC-3; Log10 Concentration −8.0) was 80%, the TGI (DU-145) was 3.04E−6 and the GI50 (DU-145; Homo sapiens) was 1.67 µM. The CC50 (DU-145; [2]) was 5.51 µM, the “Percent Growth” value (DU-145; Log10 Concentration −4.0) was −100% and the “Percent Growth” value (DU-145; Log10 Concentration −5.0) was −100%. The “Percent Growth” value (DU-145; Log10 Concentration −6.0) was 93%, the “Percent Growth” value (DU-145; Log10 Concentration −7.0) was 95% and the “Percent Growth” value (DU-145; Log10 Concentration −8.0) was 103%. For the same compound, the “Suppression of the volume of PC-3 tumor growth” value (PC-3 xenograft tumor; 25 mg/kg per day by gavage) was 44.0%, the “Suppression of the volume of PC-3 tumor growth” value (PC-3 xenograft tumor; 50 mg/kg per day by gavage) was 67.6% and the “Body weights of mice receiving the experimental diet” value [1] was “unchanged compared to controls”.
